For the assay, the target named is T1, purified human ADE2 (Homo sapiens, UniProt P22234).
T1 sequence (P22234 1-425): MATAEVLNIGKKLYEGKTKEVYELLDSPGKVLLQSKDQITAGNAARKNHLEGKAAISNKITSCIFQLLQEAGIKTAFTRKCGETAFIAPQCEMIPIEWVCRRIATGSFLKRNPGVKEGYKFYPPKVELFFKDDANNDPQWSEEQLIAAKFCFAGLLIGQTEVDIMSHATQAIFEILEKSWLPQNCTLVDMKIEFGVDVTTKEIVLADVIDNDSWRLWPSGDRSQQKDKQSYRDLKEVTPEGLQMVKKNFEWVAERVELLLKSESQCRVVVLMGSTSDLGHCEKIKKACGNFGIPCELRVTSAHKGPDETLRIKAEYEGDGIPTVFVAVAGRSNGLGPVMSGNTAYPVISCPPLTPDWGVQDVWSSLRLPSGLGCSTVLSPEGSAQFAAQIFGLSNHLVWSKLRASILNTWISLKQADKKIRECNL
The assay can be described thus: Assay of purified ADE2 (apparent Ki). Type of assay: biochemical. To be noted: apparent Ki for ADE2, three separate experiments, read-out: Ki^-1. The protocol:
All assays were performed against purified human ADE2. Results shown are from three separate experiments. Compounds that eluted HSP90 selectively had no effect of ADE2 activity in vitro at µM concentrations. […] Table 2. Determination of apparent Ki for ADE2 against GA structural analogs

`CO[C@H]1/C=C\C=C(/C)C(=O)NC2=CC(=O)C(NCCN(C)C)=C(C[C@@H](C)C[C@H](OC)[C@H](O)[C@@H](C)/C=C(\C)[C@@H]1OC(N)=O)C2=O` [Inhibitor 707545]: the Ki was 62.5 µM.

Values taken from EP1169641B1, “PROTEOME MINING” (THE UNIVERSITY OF VIRGINIA PATENT FOUNDATION, priority 1999, dated 2000).
